Measurements from paper PMC8973347, “Discovery of novel sulphonamide hybrids that inhibit LSD1 against bladder cancer cells” (Journal of Enzyme Inhibition and Medicinal Chemistry, 2022).
Entries after “also recorded” stand apart in the source; their conditions may differ.

How the values were obtained:
MAO-A = biological target: T1, MAO-A (Homo sapiens, UniProt P21397); experiment: MAO-A/B biochemical kit, MAO-A
T1 construct: purchased Promega
T1 sequence (P21397 1-527): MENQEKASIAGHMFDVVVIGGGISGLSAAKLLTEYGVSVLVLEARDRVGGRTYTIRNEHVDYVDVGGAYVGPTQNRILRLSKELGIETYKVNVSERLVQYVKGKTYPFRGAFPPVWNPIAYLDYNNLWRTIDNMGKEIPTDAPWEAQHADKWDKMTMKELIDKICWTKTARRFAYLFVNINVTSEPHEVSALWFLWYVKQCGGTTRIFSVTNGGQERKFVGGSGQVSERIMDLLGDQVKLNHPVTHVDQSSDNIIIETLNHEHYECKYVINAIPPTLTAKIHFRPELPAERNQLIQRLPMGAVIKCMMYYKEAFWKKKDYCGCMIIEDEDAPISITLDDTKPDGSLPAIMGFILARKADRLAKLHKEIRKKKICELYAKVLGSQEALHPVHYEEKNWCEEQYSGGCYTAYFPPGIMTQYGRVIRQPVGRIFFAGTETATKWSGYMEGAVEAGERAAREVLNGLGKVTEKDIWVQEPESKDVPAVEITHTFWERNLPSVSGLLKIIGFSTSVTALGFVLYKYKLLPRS
Description: (§1) LSD1 inhibitor screening assay kit was purchased to evaluate for the enzyme inhibition activity of all synthetic compounds (Cayman Chemical, Fort Annapolis, MI). The MAO-A/B biochemical kit was purchased to explore the inhibitory activity against MAO-A and MAO-B (Promega, Madison, WI). […] The signal of each well was read by a GloMax Explorer (Beijing Yuanpinghao Biotechnology Co., Ltd, Beijing, China).

MAO-B = biological target: T2, MAO-B (Homo sapiens, UniProt P27338); experiment: MAO-A/B biochemical kit, MAO-B
T2 construct: purchased Promega
T2 sequence (P27338 1-520): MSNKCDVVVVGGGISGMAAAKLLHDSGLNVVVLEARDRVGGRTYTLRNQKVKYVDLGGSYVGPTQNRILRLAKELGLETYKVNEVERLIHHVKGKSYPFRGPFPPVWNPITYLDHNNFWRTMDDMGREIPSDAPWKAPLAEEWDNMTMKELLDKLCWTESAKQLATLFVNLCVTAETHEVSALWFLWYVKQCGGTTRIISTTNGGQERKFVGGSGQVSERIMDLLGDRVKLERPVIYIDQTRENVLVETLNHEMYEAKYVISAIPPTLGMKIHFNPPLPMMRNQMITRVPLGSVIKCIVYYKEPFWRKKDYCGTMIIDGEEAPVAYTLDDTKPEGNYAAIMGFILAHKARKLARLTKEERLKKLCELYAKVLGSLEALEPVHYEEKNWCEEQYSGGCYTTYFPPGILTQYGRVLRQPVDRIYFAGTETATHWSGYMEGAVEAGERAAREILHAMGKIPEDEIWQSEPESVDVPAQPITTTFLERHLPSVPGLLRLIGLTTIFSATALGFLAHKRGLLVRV
Description: as §1

[1] = test system: H3K4me1, H3K4me2, and H3K9me2 in HT1376 cells; experiment: Western blotting of LSD1 substrates; type: cell-based; conditions: Figure 4(D)
Description: Cells were seeded in four-well plates (Shanghai Yuanye Biotechnology Co., Ltd, Shanghai, China) and exposed to different compounds at different concentrations. Cells were harvested to obtain protein solution by the RIPA Lysis Buffer (DeTie, NanJing, China). The proteins were separated on sodium dodecyl sulphate–polyacrylamide gel electrophoresis (SDS-PAGE) gels and then transferred to poly(vinylidene fluoride (PVDF) membranes (Shanghai Yuanye Biotechnology Co., Ltd, Shanghai, China). It incubated with the primary antibodies and corresponding HRP conjugated secondary antibodies (Servicebio, Wuhan, China). The […] kit (Servicebio, Wuhan, China) was used to visualise the bands.

LSD1 [2] = biological target: T3, LSD1 (Homo sapiens, UniProt O60341); experiment: LSD1 dilution assay; type: biochemical; set-up: purchased Cayman Chemical; conditions: diluted 80 times; Figure 3(C)
Description: LSD1 recombinant (Cayman Chemical, […], MI) was incubated with the targeted compound or dimethyl sulphoxide for 60 min. Then, samples were diluted 80 times using a HRP-assay solution containing substrate and coupling reagents. Finally, LSD1 inhibitory activity before and after dilution was examined.

[3] = test system: HTB3 (human bladder cell line); experiment: MTT cell viability assay, HTB3; conditions: read-out: IC50 against HTB3 cells, 48 h
Description: (§2) Cells were cultured at a 96-well plate for 24 h (Cayman Chemical, Fort Annapolis, MI) and different compounds were added. […] The solution was removed and dimethyl sulphoxide was added. Thirty minutes later, absorption values were read by a Fully Automated Microplate ELISA Analyser (DeTie, NanJing, China).

[4] = test system: LX-2 (normal human hepatic stellate cell line); experiment: MTT cell viability assay, LX-2; conditions: read-out: IC50 against LX-2 normal cell line, 48 h
Description: as §2

[5] = test system: HIEC (normal human intestinal epithelial cell line); experiment: MTT cell viability assay, HIEC; conditions: read-out: IC50 against HIEC normal cell line, 48 h
Description: as §2

[6] = test system: HTB5 cells (bladder cancer cell line); experiment: MTT cell viability assay, HTB5; conditions: read-out: IC50 against HTB5 cells; 48 h
Description: as §2

[7] = test system: HTB1 cells (bladder cancer cell line); experiment: MTT cell viability assay, HTB1; conditions: read-out: IC50 against HTB1 cells; 48 h
Description: as §2

[8] = test system: H1299 (human lung cell line); experiment: MTT cell viability assay, H1299; conditions: read-out: IC50 against H1299 cells, 48 h
Description: as §2

[9] = test system: HCT-15 (human colon cell line); experiment: MTT cell viability assay, HCT-15; conditions: read-out: IC50 against HCT-15 cells, 48 h
Description: as §2

[10] = test system: Jurkat (human leukaemia cell line); experiment: MTT cell viability assay, Jurkat; conditions: read-out: IC50 against Jurkat cells, 48 h
Description: as §2

[11] = test system: HT1376 cells (bladder cancer cell line); experiment: MTT cell viability assay, HT1376; conditions: read-out: IC50 against HT1376 cells; 48 h
Description: as §2

[12] = test system: Bel7402 (human liver cell line); experiment: MTT cell viability assay, Bel7402; conditions: read-out: IC50 against Bel7402 cells, 48 h
Description: as §2

[13] = test system: HPAEpiC (normal human alveolar epithelial cell line); experiment: MTT cell viability assay, HPAEpiC; conditions: read-out: IC50 against HPAEpiC normal cell line, 48 h
Description: as §2

LSD1 [14] = biological target: T3, LSD1; experiment: LSD1 inhibitor screening assay kit
Description: as §1

[15] = test system: SGC-7901 (human gastric cell line); experiment: MTT cell viability assay, SGC-7901; conditions: read-out: IC50 against SGC-7901 cells, 48 h
Description: as §2

HTB3&shControl cells = experiment: Antiproliferative activity, control cells HTB3&shControl; conditions: read-out: IC50 against HTB3&shControl cells
Description: as §2

HT1376&shControl cells = experiment: Antiproliferative activity, control cells HT1376&shControl; conditions: read-out: IC50 against HT1376&shControl cells
Description: as §2

HTB3&shLSD1 cells = experiment: Antiproliferative activity, LSD1 knock-down cells HTB3&shLSD1; conditions: read-out: IC50 against HTB3&shLSD1 cells
Description: as §2

HT1376&shLSD1 cells = experiment: Antiproliferative activity, LSD1 knock-down cells HT1376&shLSD1; conditions: read-out: IC50 against HT1376&shLSD1 cells
Description: as §2

COc1cc(N(CCCCSC(=S)N2CCN(CCO)CC2)S(=O)(=O)c2cccc3cccnc23)cc(OC)c1OC [Compound L8, 4-(N-(3,4,5-trimethoxyphenyl)quinoline-8-sulfonamido)butyl-4–(2-hydroxyethyl)piperazine-1-carbodithioate]
IC50 (MAO-A): > 120 µM
inhibitory rate MAO-A (MAO-A; at 100 nM): 10.33%
IC50 (MAO-B): > 120 µM
inhibitory rate MAO-B (MAO-B; at 100 nM): 9.33%
expression levels of H3K4me1, H3K4me2, and H3K9me2 [1]: increasing; also recorded: increased
reversibility of LSD1 inhibition (LSD1 [2]): reversible
IC50 [3]: 180 nM
IC50 [4]: > 16000 nM
IC50 [5]: > 16000 nM
IC50 [6]: 1870 nM
IC50 [7]: 930 nM
IC50 [8]: 310 nM
IC50 [9]: 2170 nM
IC50 [10]: 290 nM
IC50 [11]: 90 nM
IC50 [12]: 960 nM
IC50 [13]: > 16000 nM
time dependence of LSD1 inhibition (LSD1 [14]; Figure 3(B)): time-dependent
inhibition against LSD1 (LSD1 [14]; at 25 nM): about 30.33%
inhibition against LSD1 (LSD1 [14]; at 50 nM): ~46.00%
inhibition against LSD1 (LSD1 [14]; at 100 nM): ~68.00%
IC50 (LSD1 [14]; read-out: IC50 (μM) LSD1): 0.06 ± 0.01 µM
IC50 [15]: 2670 nM
IC50 (HTB3&shControl cells): 230 nM
IC50 (HT1376&shControl cells): 110 nM
IC50 (HTB3&shLSD1 cells): 3070 nM
IC50 (HT1376&shLSD1 cells): 4360 nM
